Results reported in US20100227853A1, “INHIBITORS OF CYCLIC AMP PHOSPHODIESTERASES” (Trustees of Boston College, priority 2008, published 2010).

Molecular target: T1, PDE4A5 (Rattus norvegicus, UniProt P54748)
T1 construct: targets used in the assays are full-length proteins (as opposed to simply the catalytic domain); expressed in transfected cells; host or cells: Schizosaccharomyces pombe, PDE gene integrated in place of cgs2
T1 sequence (P54748 1-844): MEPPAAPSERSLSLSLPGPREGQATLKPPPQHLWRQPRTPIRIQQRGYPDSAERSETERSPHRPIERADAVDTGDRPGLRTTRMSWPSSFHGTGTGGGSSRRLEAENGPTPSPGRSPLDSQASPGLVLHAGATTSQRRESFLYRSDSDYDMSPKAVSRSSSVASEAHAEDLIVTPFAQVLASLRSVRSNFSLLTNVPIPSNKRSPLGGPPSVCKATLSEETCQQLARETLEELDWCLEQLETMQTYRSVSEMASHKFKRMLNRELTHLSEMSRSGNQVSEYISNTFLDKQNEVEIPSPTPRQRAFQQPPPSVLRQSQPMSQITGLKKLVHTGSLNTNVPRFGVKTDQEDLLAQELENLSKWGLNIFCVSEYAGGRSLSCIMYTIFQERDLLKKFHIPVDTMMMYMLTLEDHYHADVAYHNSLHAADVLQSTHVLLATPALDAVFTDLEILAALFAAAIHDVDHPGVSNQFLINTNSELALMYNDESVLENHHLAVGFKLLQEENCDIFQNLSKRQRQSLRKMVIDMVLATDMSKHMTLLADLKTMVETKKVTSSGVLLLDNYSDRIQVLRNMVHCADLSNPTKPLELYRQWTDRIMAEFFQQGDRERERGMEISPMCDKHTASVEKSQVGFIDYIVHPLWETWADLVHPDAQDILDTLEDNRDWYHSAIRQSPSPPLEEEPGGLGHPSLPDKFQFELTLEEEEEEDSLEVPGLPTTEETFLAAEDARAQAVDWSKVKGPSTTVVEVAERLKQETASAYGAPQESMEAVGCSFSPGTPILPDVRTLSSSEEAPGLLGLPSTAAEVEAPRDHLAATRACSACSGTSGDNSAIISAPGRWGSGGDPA
Assay: 5FOA growth assay in fission yeast strain expressing PDE4A5
Assay type: cell-based
Conditions: 2 uM
Method: High throughput drug screens were carried out at the Broad Institute's Chemical Biology Program screening facility (Broad Institute, Cambridge, Mass.). Depending upon the strain, cultures were pregrown to exponential phase in EMM complete medium containing from 0.5 to 2.5 mM cAMP to repress fbp1-ura4 transcription. Cells were collected by centrifugation, resuspended in 5FOA medium, and 25 μl were transferred to 384-well microtiter dishes (untreated, with flat clear bottoms) that had been pre-filled with 25 μl 5FOA medium and pre-pinned with 100 nl of compounds (stock solutions were generally 10 mM) from a subset of the Prestwick Bioactive and the Microsource Spectrum compound libraries. Starting cell concentrations ranged from 0.5×10^5 to 4×10^5 cells/ml depending on the screening strain. […] Other positive control dishes contained 5 mM cAMP in the 5FOA medium. Cultures were grown for 48 hours at 30° C., sealed in an airtight container with moist paper towels to prevent evaporation. Optical densities (OD600) of cultures were measured using a microplate reader. Bioinformatic analysis of the results to determine composite Z scores was performed as previously described^30, 31.
Cells were pregrown in EMM medium [MP Biomedicals (Solon, Ohio), 3% glucose, filter-sterilized to avoid carmelization, which would introduce variability into the optical density of the medium] containing from 0 mM to 2.5 mM cAMP (or either 0.5 mM or 1.0 mM cGMP). This was to repress expression of the fbp1-ura4 reporter prior to exposure of cells to 5FOA medium. Cells were grown at 30° C. to exponential phase (approximately 10^7 cells/ml). Cells were collected by centrifugation and resuspended in 5FOA medium, and 25 μl were transferred to 384-well microtiter dishes (untreated, with flat clear bottoms) that had been pre-filled with 25 μl 5FOA medium and pre-pinned with 100 nl of compounds (stock solutions were generally 10 mM). Starting cell concentrations ranged from 0.5×10^5 to 4×10^5 cells/ml depending on the screening strain. […] Other positive control dishes contained 5 mM cAMP in the 5FOA medium for PDEs that lack appropriate control compounds. Cultures were grown for 48 hours at 30° C., sealed in an airtight container with moist paper towels to prevent evaporation. Optical densities (OD600) of cultures were measured using a microplate reader. Bioinformatic analysis of the results to determine composite Z scores was performed as previously described (1, 3).

SMILES | 2 Assay (2 uM), 4A5
COC(=O)C1=C(C)N(C2CCCCC2)C(=O)/C1=C\c1cccs1 [Compound 22] | 13.66
N#Cc1sc2sc(C#N)c(-c3ccco3)c2c1N [Compound 30] | 2.79

Same assay, conditions: 2 uM; PDE 4A5

SMILES | 2 Assay (2 uM), 4A5
COc1ccc2c(c1)[C@@]1(C)CCC[C@](C)(CO)C1CC2 (stereo partly shown) [Compound 2067M03] | 8.43
Cc1ccc2c(c1)CCC1CC(=O)CC[C@]21C (stereo partly shown) [Compound 2158J12] | 7.00

Same assay, conditions: 20 uM

SMILES | 1 Assay (20 uM) 4A5
COC(=O)C1=C(C)N(C2CCCCC2)C(=O)/C1=C\c1cccs1 [Compound 22] | −0.06
COC(=O)C1=C(C)N(c2ccccc2)/C(=C/c2cccs2)C1=O [2008, K19] | 0.06 ND ND ND ND
COC(=O)C1=C(C)N(c2ccc(C(C)C)cc2)C(=O)/C1=C\c1ccco1 [2008, 019] | 1.73 ND ND ND ND
COC(=O)C1/C(=C/c2cccc(OC)c2O)C(=O)N(c2ccccc2F)C1C (stereo not shown) [2008, C21] | 1.80 ND ND ND ND
N#Cc1sc2sc(C#N)c(-c3ccco3)c2c1N [Compound 30] | 2.14

Same assay, conditions: 20 uM; PDE 4A5

SMILES | 1 Assay (20 uM) 4A5
COc1ccc2c(c1)[C@@]1(C)CCC[C@](C)(CO)C1CC2 (stereo partly shown) [Compound 2067M03] | 16.94
CCc1ccc2c(c1)c1nc3ccccc3nc1n2CC [2015, P06] | 51.82 ND ND ND ND
C=Cn1c2ccccc2c2nc3ccccc3nc21 [2033, H06] | 66.58 ND ND ND ND
Cc1ccc2c(c1)CCC1CC(=O)CC[C@]21C (stereo partly shown) [Compound 2158J12] | 113.27
Cc1ccc2c(c1)c1nc3ccccc3nc1n2C(C)C [Compound 41] | 84.08
c1ccc(CCn2c3ccccc3c3nc4ccccc4nc32)cc1 [2019, G03] | 49.61 ND ND ND ND
C=CCn1c2ccc(Br)cc2c2nc3ccccc3nc21 [2017, C18] | 69.70 ND ND ND ND
CCCCn1c2ccccc2c2nc3ccccc3nc21 [2013, I20] | 71.82 ND ND ND ND
CC(C)Cn1c2ccc(Br)cc2c2nc3ccccc3nc21 [2015, L04] | 57.60 ND ND ND ND

Same assay, conditions: high throughput 5FOA growth screen

SMILES | Composite Z score, PDE4A5
c1csc(CCNc2ncnc3sc4c(c23)CCC4)c1 [Compound 2005M12] | −0.574
Cc1c(C(=O)N(C)Cc2ccccc2)sc2ncnc(N3CCN(c4ccccc4)CC3)c12 [Compound 2041G21] | 0.7964
O=C(/C=C/c1ccccc1)Nc1ncnc2sc3c(c12)CCC3 [Compound 2008K11] | −4.329
CCOC(CNc1nc(C)nc2sc3c(c12)CCCC3)OCC [Compound 2040D04] | −0.897
CCNc1nc(SCC(=O)NC(=O)NCc2ccccc2)nc2sc3c(c12)CCN(C)C3 [Compound 2054N05] | 1.0728
COc1cc(OC)c(NC(=O)c2sc3ncnc(N4CCCCC4C)c3c2C)cc1Cl (stereo not shown) [Compound 2040J10] | 0.4891
COc1cccc(NC(=O)c2sc3ncnc(N4CCc5ccccc5C4)c3c2C)c1 [Compound 2041K21] | 33.878
CCN(CC)c1ncnc2sc(C(=O)N(C)C3CCCCC3)c(C)c12 [Compound 2040J12] | −0.227
Cc1c(C(=O)Nc2ccc(F)cc2F)sc2ncnc(N(C)c3ccccc3)c12 [Compound 58-9] | 111.95
O=C(Nc1ncnc2sc3c(c12)CCCCC3)c1ccc(F)cc1 [Compound 2012F09] | 26.878
Cc1c(C(=O)NCCC(C)C)sc2ncnc(N3CCOCC3)c12 [Compound 2040F13] | −0.722
Cc1c(C(=O)NCCC2CCCCC2)sc2ncnc(N3CCCCC3C)c12 (stereo not shown) [Compound 2040H10] | 3.411
Cc1cc(C)c(C)c(S(=O)(=O)N2CCN(c3ncnc4sc5c(c34)CCCC5)CC2)c1C [Compound 2012L13] | −0.334
COc1ccc(CCNc2ncnc3sc4c(c23)CCCC4)cc1 [Compound 2012B19] | 20.422
CCCCN(CC)C(=O)c1sc2ncnc(N3CCN(c4ccc(OC)cc4)CC3)c2c1C [Compound 2007H06] | −10.26
CC1CC(=O)N(c2ncnc3sc4c(c23)CCCC4)N1 (stereo not shown) [2054 E16] | 0.5516
OCCNc1ncnc2sc3c(c12)CCCC3 [Compound 2051H22] | 2.0846
Cc1c(C(=O)N2CCCCCC2)sc2ncnc(N3CCN(c4ccccc4)CC3)c12 [Compound 2041I21] | −0.939
CCNc1nc(SCC(=O)OCC)nc2sc3c(c12)CCC(C)C3 (stereo not shown) [Compound 2053H16] | −0.22

SMILES | Composite Z score, PDE4A5
c1nc(NCCCN2CCOCC2)c2c3c(sc2n1)CCCC3 [Compound 2051N22] | −4.733
CCN(CC)c1nc(C)nc2sc(C(=O)N3CCCCCC3)c(C)c12 [Compound 2040N12] | −0.705
CCOC(=O)c1sc2nc(C)nc(N3CCC(C)CC3)c2c1C [Compound 2007D06] | −10.3
CCN(CC)c1nc(C)nc2sc(C(=O)Nc3cc(Cl)ccc3OC)c(C)c12 [Compound 2040L12] | 0.9752
CCOC(=O)c1ccccc1NC(=O)c1sc2nc(C)nc(N(CC)CC)c2c1C [Compound 2040P12] | 1.3091
CCOC(=O)c1sc2nc(C)nc(N(C)Cc3ccccc3)c2c1C [Compound 2007L04] | 13.196
Cc1nc(N2CCCCC2)c2c(C)c(C(=O)Nc3cccc(C(F)(F)F)c3)sc2n1 [Compound 2040F10] | 1.7466
COc1ccc(NC(=O)c2sc3nc(C)nc(N(C)c4ccc(C(C)C)cc4)c3c2C)c(OC)c1 [Compound 2041I04] | 1.1627
O=C(O)CCNc1ncnc2sc3c(c12)CCCC3 [Compound 2012O16] | 0.289
CCN(CC)c1ncnc2sc3c(c12)CCCC3 [BC44] | 63.222
CC(C)CC(Nc1ncnc2sc3c(c12)CCC3)C(=O)O (stereo not shown) [Compound 2012H20] | −0.102
CCC1CCc2c(sc3ncnc(N4CCOCC4)c23)C1 (stereo not shown) [BC33] | 36.026
CNc1nc(=S)[nH]c2sc3c(c12)CCCC3 [2054 E08] | −0.378
Cc1c(C(=O)Nc2ccc(F)cc2F)sc2ncnc(N3CCC(C)CC3)c12 [BC58] | 154.72
Cc1nc(NCCc2ccccc2)c2c3c(sc2n1)CCCC3 [Compound 2008G09] | −4.881
CCOC(=O)c1sc2nc(Cc3ccccc3)nc(NCCC3CCCCC3)c2c1C [Compound 2040F07] | 2.5342
CCNc1nc(SCc2ccc(Cl)cc2)nc2sc3c(c12)CCN(C)C3 [Compound 2054P05] | 1.0025
CCC(C)NC(=O)c1sc2nc(C)nc(N(C)c3ccc(C(C)C)cc3)c2c1C (stereo not shown) [Compound 2041K04] | 10.539
